Measurements published in patent publication US20250144067A1, “PERSONALIZED STARVATION THERAPY FOR CANCER” (Faeth Therapeutics, Inc., priority 2021, published 2025).
Where a name gives a salt, the structure may show the parent alone.

The compounds below were run on NCI-H292 lung cancer cells (assay: FDA drug screening, complete media vs cholesterol-free media with simvastatin (TABLE 2)). Settings: NCI-H292 cells, FDA library drug in cholesterol-free media with simvastatin 0.04 μM.
Type: cell-based, human

Structure (SMILES)	Cholesterol-free media + simvastatin (0.04 μM)
CN/C(=N/CCSCc1nc[nH]c1C)NC#N [Cimetidine]	1.358

Same assay, conditions: NCI-H292 cells, FDA library drug in complete media

Structure (SMILES)	Complete Media
CN/C(=N/CCSCc1nc[nH]c1C)NC#N [Cimetidine]	0.952

Same assay, conditions: NCI-H292 cells, cholesterol-free media with simvastatin 0.04 μM; FDA drug library screen (TABLE 2)

Structure (SMILES)	Cholesterol-free media + simvastatin (0.04 μM)
Cc1cc(O)cc(C)c1Cl [Chloroxylenol]	0.9866
Cc1ccc2c(Cl)cc(Cl)c(O)c2n1 [Chlorquinaldol]	0.0008861

Same assay, conditions: NCI-H292 cells, cholesterol-free media with simvastatin 0.04 μM; cell growth value in FDA drug screen

Structure (SMILES)	Cholesterol-free media + simvastatin (0.04 μM)
Oc1c(Cl)cc(Cl)c2cccnc12 [Chloroxine]	0.8888
C[N+](C)(C)CCO.[Cl-] [Choline (chloride)]	0.793
Cc1cc(C2CCCCC2)n(O)c(=O)c1 [Ciclopirox (olamine)]	0.5971
Nc1ccn(C[C@@H](CO)OCP(=O)(O)O)c(=O)n1 [Cidofovir]	0.9844
C[C@@H](NCCCc1cccc(C(F)(F)F)c1)c1cccc2ccccc12 [Cinacalcet (hydrochloride)]	0.9304
C[C@@H](NCCCc1cccc(C(F)(F)F)c1)c1cccc2ccccc12 [Cinacalcet]	0.8605
C(=C\c1ccccc1)/CN1CCN(C(c2ccccc2)c2ccccc2)CC1 [Cinnarizine]	1.061

Same assay, conditions: NCI-H292 cells, complete media; FDA drug library screen (TABLE 2)

Structure (SMILES)	Complete Media
Cc1cc(O)cc(C)c1Cl [Chloroxylenol]	0.951
Cc1ccc2c(Cl)cc(Cl)c(O)c2n1 [Chlorquinaldol]	0.007501

Same assay, conditions: NCI-H292 cells, complete media; cell growth value in FDA drug screen

Structure (SMILES)	Complete Media
Oc1c(Cl)cc(Cl)c2cccnc12 [Chloroxine]	1.011
C[N+](C)(C)CCO.[Cl-] [Choline (chloride)]	0.8494
Cc1cc(C2CCCCC2)n(O)c(=O)c1 [Ciclopirox (olamine)]	0.715
Nc1ccn(C[C@@H](CO)OCP(=O)(O)O)c(=O)n1 [Cidofovir]	1.01
C[C@@H](NCCCc1cccc(C(F)(F)F)c1)c1cccc2ccccc12 [Cinacalcet (hydrochloride)]	0.9877
C[C@@H](NCCCc1cccc(C(F)(F)F)c1)c1cccc2ccccc12 [Cinacalcet]	0.9247

Same assay, conditions: NCI-H292 cells, drug in cholesterol-free media with simvastatin 0.04 μM

Structure (SMILES)	Cholesterol-free media + simvastatin (0.04 μM)
NS(=O)(=O)c1cc2c(cc1Cl)N=CNS2(=O)=O [Chlorothiazide]	1.126
CCCNC(=O)NS(=O)(=O)c1ccc(Cl)cc1 [Chlorpropamide]	1.114
NS(=O)(=O)c1cc(C2(O)NC(=O)c3ccccc32)ccc1Cl (centres unmarked) [Chlorthalidone]	1.215
CCOC(=O)[C@H](CCc1ccccc1)N[C@H]1CCCN2CCC[C@@H](C(=O)O)N2C1=O [Cilazapril (monohydrate)]	1.266
COCCOC(=O)C1=C(C)NC(C)=C(C(=O)OC/C=C/c2ccccc2)C1c1cccc([N+](=O)[O-])c1 (centres unmarked) [Cilnidipine]	0.9073

Same assay, conditions: NCI-H292 cells, drug in complete media

Structure (SMILES)	Complete Media
NS(=O)(=O)c1cc2c(cc1Cl)N=CNS2(=O)=O [Chlorothiazide]	0.9372
CCCNC(=O)NS(=O)(=O)c1ccc(Cl)cc1 [Chlorpropamide]	0.9308
NS(=O)(=O)c1cc(C2(O)NC(=O)c3ccccc32)ccc1Cl (centres unmarked) [Chlorthalidone]	0.9907
CCOC(=O)[C@H](CCc1ccccc1)N[C@H]1CCCN2CCC[C@@H](C(=O)O)N2C1=O [Cilazapril (monohydrate)]	1.104
COCCOC(=O)C1=C(C)NC(C)=C(C(=O)OC/C=C/c2ccccc2)C1c1cccc([N+](=O)[O-])c1 (centres unmarked) [Cilnidipine]	0.7251

Same assay, conditions: complete media minus cholesterol-free media + simvastatin (0.04 μM); >0 enhanced anti-cancer activity, about 0 neutral, <0 antagonist

Structure (SMILES)	Difference
Cc1cc(O)cc(C)c1Cl [Chloroxylenol]	−0.04
Cc1ccc2c(Cl)cc(Cl)c(O)c2n1 [Chlorquinaldol]	0.01

Same assay, conditions: complete media minus cholesterol-free media + simvastatin; >0 enhanced anti-cancer activity, about 0 neutral, <0 antagonist

Structure (SMILES)	Difference
Oc1c(Cl)cc(Cl)c2cccnc12 [Chloroxine]	0.12
C[N+](C)(C)CCO.[Cl-] [Choline (chloride)]	0.06
Cc1cc(C2CCCCC2)n(O)c(=O)c1 [Ciclopirox (olamine)]	0.12
Nc1ccn(C[C@@H](CO)OCP(=O)(O)O)c(=O)n1 [Cidofovir]	0.03
C[C@@H](NCCCc1cccc(C(F)(F)F)c1)c1cccc2ccccc12 [Cinacalcet (hydrochloride)]	0.06
C[C@@H](NCCCc1cccc(C(F)(F)F)c1)c1cccc2ccccc12 [Cinacalcet]	0.06
C(=C\c1ccccc1)/CN1CCN(C(c2ccccc2)c2ccccc2)CC1 [Cinnarizine]	0.11

Same assay, conditions: complete media vs cholesterol-free media + simvastatin (0.04 μM); >0 enhanced anti-cancer activity, about 0 neutral, <0 antagonist

Structure (SMILES)	Difference
NS(=O)(=O)c1cc2c(cc1Cl)N=CNS2(=O)=O [Chlorothiazide]	−0.19
CCCNC(=O)NS(=O)(=O)c1ccc(Cl)cc1 [Chlorpropamide]	−0.18
NS(=O)(=O)c1cc(C2(O)NC(=O)c3ccccc32)ccc1Cl (centres unmarked) [Chlorthalidone]	−0.22
CCOC(=O)[C@H](CCc1ccccc1)N[C@H]1CCCN2CCC[C@@H](C(=O)O)N2C1=O [Cilazapril (monohydrate)]	−0.16
COCCOC(=O)C1=C(C)NC(C)=C(C(=O)OC/C=C/c2ccccc2)C1c1cccc([N+](=O)[O-])c1 (centres unmarked) [Cilnidipine]	−0.18
CN/C(=N/CCSCc1nc[nH]c1C)NC#N [Cimetidine]	−0.41

Each compound was assayed on NCI-H292 lung cancer cells (assay: FDA drug screening, complete media vs cholesterol-free media without statin (TABLE 1)). Settings: Complete minus Cholesterol-free; >0 enhanced anti-cancer activity, about 0 neutral, <0 antagonist.
Type: cell-based, human

Structure (SMILES)	Difference
Cc1cc(O)cc(C)c1Cl [Chloroxylenol]	−0.19
Cc1ccc2c(Cl)cc(Cl)c(O)c2n1 [Chlorquinaldol]	0.01
NS(=O)(=O)c1cc(C2(O)NC(=O)c3ccccc32)ccc1Cl (centres unmarked) [Chlorthalidone]	−0.22

Same assay, conditions: Complete minus Cholesterol-free; greater than 0 enhanced anti-cancer activity, about 0 neutral, below 0 antagonist

Structure (SMILES)	Difference
Cc1cc(C2CCCCC2)n(O)c(=O)c1 [Ciclopirox (olamine)]	−0.13

Same assay, conditions: Complete minus Cholesterol-free; greater than 0 enhanced anti-cancer activity, about 0 neutral, below 0 antagonists

Structure (SMILES)	Difference
CCCNC(=O)NS(=O)(=O)c1ccc(Cl)cc1 [Chlorpropamide]	−0.51
CN/C(=N/CCSCc1nc[nH]c1C)NC#N [Cimetidine]	−0.70

Same assay, conditions: NCI-H292 cells in cholesterol-free media without statin

Structure (SMILES)	Cholesterol-free
CCCNC(=O)NS(=O)(=O)c1ccc(Cl)cc1 [Chlorpropamide]	1.49
CN/C(=N/CCSCc1nc[nH]c1C)NC#N [Cimetidine]	1.504

Same assay, conditions: NCI-H292 cells in complete media

Structure (SMILES)	Complete
CCCNC(=O)NS(=O)(=O)c1ccc(Cl)cc1 [Chlorpropamide]	0.9801
CN/C(=N/CCSCc1nc[nH]c1C)NC#N [Cimetidine]	0.8083

Same assay, conditions: NCI-H292 cells, FDA drug library screen, cholesterol-free media without statin

Structure (SMILES)	Cholesterol-free
Cc1cc(C2CCCCC2)n(O)c(=O)c1 [Ciclopirox (olamine)]	0.3971

Same assay, conditions: NCI-H292 cells, FDA drug library screen, complete media

Structure (SMILES)	Complete
Cc1cc(C2CCCCC2)n(O)c(=O)c1 [Ciclopirox (olamine)]	0.2691

Same assay, conditions: NCI-H292 cells, cholesterol-free media without statin

Structure (SMILES)	Cholesterol-free
Cc1cc(O)cc(C)c1Cl [Chloroxylenol]	1.219
NS(=O)(=O)c1cc(C2(O)NC(=O)c3ccccc32)ccc1Cl (centres unmarked) [Chlorthalidone]	1.209
Nc1ccn(C[C@@H](CO)OCP(=O)(O)O)c(=O)n1 [Cidofovir]	2.027
C[C@@H](NCCCc1cccc(C(F)(F)F)c1)c1cccc2ccccc12 [Cinacalcet (hydrochloride)]	1.099
C(=C\c1ccccc1)/CN1CCN(C(c2ccccc2)c2ccccc2)CC1 [Cinnarizine]	1.344

Same assay, conditions: NCI-H292 cells, cholesterol-free media without statin, FDA drug library screen

Structure (SMILES)	Cholesterol-free
NS(=O)(=O)c1cc2c(cc1Cl)N=CNS2(=O)=O [Chlorothiazide]	0.8661
Oc1c(Cl)cc(Cl)c2cccnc12 [Chloroxine]	1.086
Cc1ccc2c(Cl)cc(Cl)c(O)c2n1 [Chlorquinaldol]	0.003949
C[N+](C)(C)CCO.[Cl-] [Choline (chloride)]	0.7223
CCOC(=O)[C@H](CCc1ccccc1)N[C@H]1CCCN2CCC[C@@H](C(=O)O)N2C1=O [Cilazapril (monohydrate)]	0.8411
COCCOC(=O)C1=C(C)NC(C)=C(C(=O)OC/C=C/c2ccccc2)C1c1cccc([N+](=O)[O-])c1 (centres unmarked) [Cilnidipine]	1.441
C[C@@H](NCCCc1cccc(C(F)(F)F)c1)c1cccc2ccccc12 [Cinacalcet]	0.8181

Same assay, conditions: NCI-H292 cells, complete media

Structure (SMILES)	Complete
Cc1cc(O)cc(C)c1Cl [Chloroxylenol]	1.028
NS(=O)(=O)c1cc(C2(O)NC(=O)c3ccccc32)ccc1Cl (centres unmarked) [Chlorthalidone]	0.9927
Nc1ccn(C[C@@H](CO)OCP(=O)(O)O)c(=O)n1 [Cidofovir]	1.556
C[C@@H](NCCCc1cccc(C(F)(F)F)c1)c1cccc2ccccc12 [Cinacalcet (hydrochloride)]	0.7862
C(=C\c1ccccc1)/CN1CCN(C(c2ccccc2)c2ccccc2)CC1 [Cinnarizine]	0.9213

Same assay, conditions: NCI-H292 cells, complete media, FDA drug library screen

Structure (SMILES)	Complete
NS(=O)(=O)c1cc2c(cc1Cl)N=CNS2(=O)=O [Chlorothiazide]	1.321
Oc1c(Cl)cc(Cl)c2cccnc12 [Chloroxine]	1.288
Cc1ccc2c(Cl)cc(Cl)c(O)c2n1 [Chlorquinaldol]	0.01849
C[N+](C)(C)CCO.[Cl-] [Choline (chloride)]	1.217
CCOC(=O)[C@H](CCc1ccccc1)N[C@H]1CCCN2CCC[C@@H](C(=O)O)N2C1=O [Cilazapril (monohydrate)]	0.9896
COCCOC(=O)C1=C(C)NC(C)=C(C(=O)OC/C=C/c2ccccc2)C1c1cccc([N+](=O)[O-])c1 (centres unmarked) [Cilnidipine]	1.574
C[C@@H](NCCCc1cccc(C(F)(F)F)c1)c1cccc2ccccc12 [Cinacalcet]	1.378

Same assay, conditions: complete vs cholesterol-free media; >0 enhanced anti-cancer activity, about 0 neutral, <0 antagonist

Structure (SMILES)	Difference
NS(=O)(=O)c1cc2c(cc1Cl)N=CNS2(=O)=O [Chlorothiazide]	0.45
Oc1c(Cl)cc(Cl)c2cccnc12 [Chloroxine]	0.20
C[N+](C)(C)CCO.[Cl-] [Choline (chloride)]	0.49
CCOC(=O)[C@H](CCc1ccccc1)N[C@H]1CCCN2CCC[C@@H](C(=O)O)N2C1=O [Cilazapril (monohydrate)]	0.15
COCCOC(=O)C1=C(C)NC(C)=C(C(=O)OC/C=C/c2ccccc2)C1c1cccc([N+](=O)[O-])c1 (centres unmarked) [Cilnidipine]	0.13
C[C@@H](NCCCc1cccc(C(F)(F)F)c1)c1cccc2ccccc12 [Cinacalcet]	0.56

Same assay, conditions: complete vs cholesterol-free media; greater than 0 enhanced anti-cancer activity, about 0 neutral, below 0 antagonists

Structure (SMILES)	Difference
Nc1ccn(C[C@@H](CO)OCP(=O)(O)O)c(=O)n1 [Cidofovir]	−0.47
C[C@@H](NCCCc1cccc(C(F)(F)F)c1)c1cccc2ccccc12 [Cinacalcet (hydrochloride)]	−0.31
C(=C\c1ccccc1)/CN1CCN(C(c2ccccc2)c2ccccc2)CC1 [Cinnarizine]	−0.42
